Reference: patent US20250326753A1, “DUAL CXCR4-BTK INHIBITORS” (X4 Pharmaceuticals, Inc., priority 2022, published 2025)

Legend:
BLK = biological target: T1, BLK (Homo sapiens, UniProt P51451); assay: PanQinase kinase panel: BLK; format: biochemical; conditions: read-out: INHIBITORY EFFECT @ 1 uM: BLK
T1 construct: purchased Reaction Biology Europe GmbH
Protocol: (§1) Screening procedures were performed in accordance with the company's on-line protocol [accessed on-line Mar.
(§2) For each kinase, the median value of the cpm of three wells was defined as “low control” (n=3). This value reflects unspecific binding of radioactivity to the plate in the absence of a protein kinase but in the presence of the substrate. Additionally, for each kinase the median value of the cpm of three other wells was taken as the “high control,” i.e. full activity in the absence of any inhibitor (n=3). The difference between high and low control of each enzyme was taken as 100% activity.
As part of the data evaluation the low control of each kinase was subtracted from the high control value as well as from their corresponding “compound values”.

MEKK3 = biological target: T2, MEKK3 (Homo sapiens, UniProt Q99759); assay: PanQinase kinase panel: MEKK3; format: biochemical; conditions: read-out: INHIBITORY EFFECT @ 1 uM: MEKK3
T2 construct: purchased Reaction Biology Europe GmbH
T2 sequence (Q99759 1-626): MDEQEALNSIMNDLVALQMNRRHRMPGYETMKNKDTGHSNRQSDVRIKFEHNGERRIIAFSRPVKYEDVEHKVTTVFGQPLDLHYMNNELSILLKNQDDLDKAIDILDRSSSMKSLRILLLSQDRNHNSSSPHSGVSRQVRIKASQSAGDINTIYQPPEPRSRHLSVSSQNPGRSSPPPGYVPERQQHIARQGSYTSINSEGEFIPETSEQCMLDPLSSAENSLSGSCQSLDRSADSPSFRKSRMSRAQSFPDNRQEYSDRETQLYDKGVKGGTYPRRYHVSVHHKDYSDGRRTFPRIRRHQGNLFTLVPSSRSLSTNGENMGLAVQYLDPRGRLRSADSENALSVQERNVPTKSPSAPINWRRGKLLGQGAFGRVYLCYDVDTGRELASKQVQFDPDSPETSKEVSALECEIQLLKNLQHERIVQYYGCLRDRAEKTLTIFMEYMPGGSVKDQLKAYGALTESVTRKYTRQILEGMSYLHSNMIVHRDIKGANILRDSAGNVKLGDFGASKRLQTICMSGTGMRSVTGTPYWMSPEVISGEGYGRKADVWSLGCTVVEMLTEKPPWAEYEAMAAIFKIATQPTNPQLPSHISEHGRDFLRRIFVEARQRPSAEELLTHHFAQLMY
Protocol: as §1, §2
(§3) As part of the data evaluation the low control of each kinase was subtracted from the high control value as well as from their corresponding “compound values”. The residual activity (in %) for each compound well was calculated by using the following formula: Res. Activity (%)=100×[(signal of compound−low control)/(high control−low control)].

PAK1 = biological target: T3, PAK1 (Homo sapiens, UniProt Q13153); assay: PanQinase kinase panel: PAK1; format: biochemical; conditions: read-out: INHIBITORY EFFECT @ 1 uM: PAK1
T3 construct: purchased Reaction Biology Europe GmbH
T3 sequence (Q13153 whole entry): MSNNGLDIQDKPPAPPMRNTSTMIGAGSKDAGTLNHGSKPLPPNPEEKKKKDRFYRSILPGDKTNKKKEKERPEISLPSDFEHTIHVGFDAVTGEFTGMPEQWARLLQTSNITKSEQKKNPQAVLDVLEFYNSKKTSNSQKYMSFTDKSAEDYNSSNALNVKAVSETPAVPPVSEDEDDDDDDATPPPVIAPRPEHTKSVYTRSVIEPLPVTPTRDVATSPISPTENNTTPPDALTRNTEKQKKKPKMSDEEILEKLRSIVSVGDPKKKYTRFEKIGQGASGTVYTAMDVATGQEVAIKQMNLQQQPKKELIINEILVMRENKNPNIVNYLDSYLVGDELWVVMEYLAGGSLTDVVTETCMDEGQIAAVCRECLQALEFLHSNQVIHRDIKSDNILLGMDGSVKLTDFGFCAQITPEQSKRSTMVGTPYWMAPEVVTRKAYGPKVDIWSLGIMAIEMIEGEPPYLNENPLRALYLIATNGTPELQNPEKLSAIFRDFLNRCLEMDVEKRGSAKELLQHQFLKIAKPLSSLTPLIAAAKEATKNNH
Protocol: as §1, §2, §3

ITK = biological target: T4, ITK (Homo sapiens, UniProt Q08881); assay: PanQinase kinase panel: ITK; format: biochemical; conditions: read-out: INHIBITORY EFFECT @ 1 uM: ITK
T4 construct: purchased Reaction Biology Europe GmbH
T4 sequence (Q08881 1-620): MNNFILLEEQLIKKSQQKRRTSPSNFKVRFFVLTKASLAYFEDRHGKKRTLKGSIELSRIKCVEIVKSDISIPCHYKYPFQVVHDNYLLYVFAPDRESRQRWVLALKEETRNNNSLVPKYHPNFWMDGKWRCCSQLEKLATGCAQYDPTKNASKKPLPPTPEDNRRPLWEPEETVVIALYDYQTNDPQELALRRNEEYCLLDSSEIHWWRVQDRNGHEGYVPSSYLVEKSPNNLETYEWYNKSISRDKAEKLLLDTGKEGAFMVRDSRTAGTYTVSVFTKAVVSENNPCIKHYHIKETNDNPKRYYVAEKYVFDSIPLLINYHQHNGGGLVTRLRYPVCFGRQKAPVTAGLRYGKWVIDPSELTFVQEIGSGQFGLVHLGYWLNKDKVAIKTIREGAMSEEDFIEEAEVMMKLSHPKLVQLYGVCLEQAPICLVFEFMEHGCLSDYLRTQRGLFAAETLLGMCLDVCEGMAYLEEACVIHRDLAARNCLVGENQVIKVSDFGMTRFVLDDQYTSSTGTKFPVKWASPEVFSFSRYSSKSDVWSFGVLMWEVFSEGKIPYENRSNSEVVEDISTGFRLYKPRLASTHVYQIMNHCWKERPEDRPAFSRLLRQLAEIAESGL
Protocol: as §1, §2, §3

CXCR4 = CXCR4 (Homo sapiens, UniProt P61073); assay: Chemokine (CXCL12-AF647) binding inhibition assay, Jurkat cells expressing CXCR4; conditions: CXCL12-AF647 25 ng/ml, read-out: IC50 CXCL-12 binding Jurkat
Chain of CXCR4 (P61073 whole entry): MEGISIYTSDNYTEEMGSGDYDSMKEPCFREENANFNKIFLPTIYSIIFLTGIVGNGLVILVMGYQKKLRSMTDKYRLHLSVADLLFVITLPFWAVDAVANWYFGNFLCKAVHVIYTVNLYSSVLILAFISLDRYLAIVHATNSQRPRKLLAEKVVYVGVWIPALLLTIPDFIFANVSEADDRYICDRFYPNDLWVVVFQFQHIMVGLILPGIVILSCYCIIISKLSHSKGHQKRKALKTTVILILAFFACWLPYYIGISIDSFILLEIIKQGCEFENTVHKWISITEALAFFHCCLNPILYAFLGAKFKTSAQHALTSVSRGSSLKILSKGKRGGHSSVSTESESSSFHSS
Protocol: Jurkat cells expressing CXCR4 were washed once with assay buffer (Hanks' balanced salt solution with 20 mM HEPES buffer and 0.2% bovine serum albumin, pH 7.4) and then incubated for 15 min at room temperature with the test compounds diluted in assay buffer at dose-dependent concentrations. Subsequently, CXCL12-AF647 (25 ng/ml) was added to the compound-incubated cells. The cells were incubated for 30 min at room temperature. Thereafter, the cells were washed twice in assay buffer, fixed in 1% paraformaldehyde in PBS, and analyzed on the FL4 channel of a FACSCalibur flow cytometer equipped with a 635-nm red diode laser (Becton Dickinson, San Jose, CA, USA).
The percentages of inhibition of CXCL12-AF647 binding were calculated according to the formula: [1−((MFI−MFINC)/(MFIPC−MFINC))]×100 where MFI is the mean fluorescence intensity of the cells incubated with CXCL 12-AF647 in the presence of the inhibitor, MFINC is the mean fluorescence intensity measured in the negative control (i.e., autofluorescence of unlabeled cells), and MFIPC is the mean fluorescence intensity of the positive control (i.e., cells exposed to CXCL12-AF647 alone).

VEGFR2 = biological target: T5, VEGFR2 (Homo sapiens, UniProt P35968); assay: PanQinase kinase panel: VEGFR2; format: biochemical; conditions: read-out: INHIBITORY EFFECT @ 1 uM: VEGFR2
T5 construct: purchased Reaction Biology Europe GmbH
T5 sequence (P35968 20-1356): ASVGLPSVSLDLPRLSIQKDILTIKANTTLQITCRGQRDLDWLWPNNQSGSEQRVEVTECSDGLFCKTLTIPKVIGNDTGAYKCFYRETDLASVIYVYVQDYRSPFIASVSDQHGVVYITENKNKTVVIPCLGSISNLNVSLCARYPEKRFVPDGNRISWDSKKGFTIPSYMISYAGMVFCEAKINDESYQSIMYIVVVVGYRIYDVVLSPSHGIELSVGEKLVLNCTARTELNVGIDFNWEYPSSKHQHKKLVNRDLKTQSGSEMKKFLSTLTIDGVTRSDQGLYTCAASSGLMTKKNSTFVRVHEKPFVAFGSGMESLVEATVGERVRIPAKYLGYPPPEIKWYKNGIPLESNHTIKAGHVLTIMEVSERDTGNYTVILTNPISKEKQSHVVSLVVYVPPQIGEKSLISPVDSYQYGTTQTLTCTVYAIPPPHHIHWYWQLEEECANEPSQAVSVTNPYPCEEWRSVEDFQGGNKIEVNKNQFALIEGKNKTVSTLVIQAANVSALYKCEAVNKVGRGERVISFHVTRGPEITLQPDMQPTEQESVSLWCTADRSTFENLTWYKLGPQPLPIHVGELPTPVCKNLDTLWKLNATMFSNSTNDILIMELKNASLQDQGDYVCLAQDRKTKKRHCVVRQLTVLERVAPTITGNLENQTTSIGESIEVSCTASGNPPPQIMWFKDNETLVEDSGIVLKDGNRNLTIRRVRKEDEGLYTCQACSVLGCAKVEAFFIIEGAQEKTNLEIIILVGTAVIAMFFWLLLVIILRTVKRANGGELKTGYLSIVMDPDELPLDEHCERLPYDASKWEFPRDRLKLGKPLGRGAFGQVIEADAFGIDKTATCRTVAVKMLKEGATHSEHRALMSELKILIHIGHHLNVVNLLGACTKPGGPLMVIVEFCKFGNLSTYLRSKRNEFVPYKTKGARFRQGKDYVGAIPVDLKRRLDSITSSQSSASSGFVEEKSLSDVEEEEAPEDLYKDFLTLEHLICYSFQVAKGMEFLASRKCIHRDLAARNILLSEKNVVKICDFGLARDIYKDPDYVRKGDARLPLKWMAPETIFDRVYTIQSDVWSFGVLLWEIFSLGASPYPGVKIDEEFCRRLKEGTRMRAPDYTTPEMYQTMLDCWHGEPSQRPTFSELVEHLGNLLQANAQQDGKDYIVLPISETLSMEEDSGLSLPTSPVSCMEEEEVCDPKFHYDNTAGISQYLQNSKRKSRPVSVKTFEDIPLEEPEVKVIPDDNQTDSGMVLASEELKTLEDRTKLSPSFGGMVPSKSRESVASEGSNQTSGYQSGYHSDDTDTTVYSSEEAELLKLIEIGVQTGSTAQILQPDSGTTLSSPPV
Protocol: as §1, §2, §3

T1 sequence (P51451 whole entry): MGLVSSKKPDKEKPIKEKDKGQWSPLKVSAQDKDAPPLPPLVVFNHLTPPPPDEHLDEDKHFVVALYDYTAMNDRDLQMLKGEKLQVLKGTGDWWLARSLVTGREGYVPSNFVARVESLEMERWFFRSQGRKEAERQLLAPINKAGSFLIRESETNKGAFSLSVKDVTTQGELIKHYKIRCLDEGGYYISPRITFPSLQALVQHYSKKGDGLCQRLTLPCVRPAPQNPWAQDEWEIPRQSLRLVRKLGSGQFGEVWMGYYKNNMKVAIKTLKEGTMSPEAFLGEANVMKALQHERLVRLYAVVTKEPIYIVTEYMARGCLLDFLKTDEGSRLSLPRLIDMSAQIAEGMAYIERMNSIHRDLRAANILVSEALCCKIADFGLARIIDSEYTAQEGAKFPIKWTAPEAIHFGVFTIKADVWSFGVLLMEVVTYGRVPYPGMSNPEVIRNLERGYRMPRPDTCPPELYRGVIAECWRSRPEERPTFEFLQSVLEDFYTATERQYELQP

| IC50 (CXCR4) [nM] | SMILES | inhibition at 1 µM (BLK) [%] | inhibition at 1 µM (MEKK3) [%] | inhibition at 1 µM (PAK1) [%] | inhibition at 1 µM (ITK) [%] | inhibition at 1 µM (VEGFR2) [%] |
| --- | --- | --- | --- | --- | --- | --- |
| 1 to 100 | Cc1cc(-c2ccnc(Nc3cnn(CCN4[C@@H](c5ncccc5C)CCC[C@H]4c4ncccc4C)c3)n2)ccc1CNC(=O)N1CC(OC(C)C)C1 [Compound I-11] | – | – | – | – | – |
| 1 to 100 | Cc1cccnc1[C@H]1CCC[C@@H](c2ncccc2C)N1CCCCNC(=O)[C@@H]1CC[C@@H](Nc2ncnc3[nH]cc(C(=O)c4ccc(Oc5ccccc5)cc4Cl)c23)CO1 [Compound I-16] | – | – | – | – | – |
| 100 to 1000 | Cc1cccnc1[C@H]1CCC[C@@H](c2ncccc2C)N1CCCCNC(=O)OC[C@@H]1CC[C@@H](Nc2ncnc3[nH]cc(C(=O)c4ccc(Oc5ccccc5)cc4Cl)c23)CO1 [Compound I-18] | – | – | – | – | – |

More lines, now with the values behind:

| SMILES | IC50 (CXCR4) [nM] | inhibition at 1 µM (BLK) [%] | inhibition at 1 µM (MEKK3) [%] | inhibition at 1 µM (PAK1) [%] | inhibition at 1 µM (ITK) [%] | inhibition at 1 µM (VEGFR2) [%] |
| --- | --- | --- | --- | --- | --- | --- |
| O=C(c1ccc(Oc2ccccc2)cc1Cl)c1c[nH]c2ncnc(N[C@@H]3CC[C@@H](CO)OC3)c12 [ARQ-531, (2-chloro-4-phenoxyphenyl) (4-(((3R,6S)-6-(hydroxymethyl)tetrahydro-2H-pyran-3-yl)amino)-7H-pyrrolo[2,3-d]pyrimidin-5-yl) methanone] | – | 90 to 100 | 50 to 69 | 50 to 69 | 50 to 69 | – |
| Cc1cccnc1[C@H]1CCC[C@@H](c2ncccc2C)N1CCN1CCN(C(=O)c2ccc(-c3cc4c(-c5cccc(NC(=O)c6ccccc6)c5C)ncnc4[nH]3)cc2)CC1 [Compound I-10, N-(3-(6-(4-(4-(2-((2R,6S)-2,6-bis(3-methylpyridin-2-yl)piperidin-1-yl)ethyl)piperazine-1-carbonyl)phenyl)-7H-pyrrolo[2,3-d]pyrimidin-4-yl)-2-methylphenyl)benzamide] | 1 to 100 | < 50 | < 50 | < 50 | < 50 | < 50 |
| COc1ccc(F)cc1C(=O)NCc1ccc(-c2nn([C@@H](C)C(F)(F)F)c(N)c2C(N)=O)cc1 [LOXO-305, pirtobrutinib] | – | < 50 | < 50 | < 50 | < 50 | < 50 |
| C=CC(=O)N1CCC([C@@H]2CCNc3c(C(N)=O)c(-c4ccc(Oc5ccccc5)cc4)nn32)CC1 [Zanubrutinib, (7S)-2-(4-phenoxyphenyl)-7-(1-prop-2-enoylpiperidin-4-yl)-4,5,6,7-tetrahydropyrazolo[1,5-a]pyrimidine-3-carboxamide] | – | – | < 50 | < 50 | < 50 | < 50 |
